Data from US20120045501A1, “CONNEXIN ENHANCES CHEMOTHERAPY-INCLUDED APOPTOSIS IN HUMAN CANCER CELLS INHIBITING TUMOR CELL PROLIFERATION” (Northwest Hospital, priority 2001, published 2012).
One block for each compound: values may come before it.

Tests used:
U251N23 cells [1] = assay: Clonogenicity (cell survival) assay; type: cell-based, human
Method: (§1) The surviving cell fraction was determined by clonogenicity assay as previously described (Huang et al., J. Cell Biol. 133:211-220 (1996)). Cells were seeded at a density of 500 cells per 60 mm plate and incubated overnight and then treated with drugs; culture was then continued for 3 weeks. Clones were fixed in 4% formaldehyde-PBS and stained with Giemsa solution. Colonies containing more than 50 cells were counted and the fraction of surviving cells was calculated. The results represented the average of three separate experiments.
(§2) Values at OD 570 reflect the relative number of viable cells.

U251cx43-216 cells [2] = assay: Clonogenicity (cell survival) assay; type: cell-based, human
Method: as §1, §2

U251cx43-216 cells [3] = assay: MTT cell viability assay; conditions: Homo sapiens, 144 h
U251N23 cells [4] = assay: MTT cell viability assay; type: cell-based; conditions: Homo sapiens, 144 h, day 6 after treatment, U251N23 (control-transfected)
Method: In vitro viability was determined by the 3-(4,5-dimethylthiazol-2yl)-2,5-diphenyltetrazolium bromide (MTT) colorimetric assay as described in (Huang et al., Cancer Res. 55:5054-5062 (1995)). Cells (1×10^3) were plated in triplicate in 96 well microplates overnight and treated with 5 different concentrations of VP16, Tax and DOX, respectively. […] Absorbance values at 570 nm were plotted as a measure of the relative number of cells. […] Both methods gave the identical results.
as §2

U251N23 cells [5] = assay: Gap junction communication, Lucifer yellow dye transfer; type: cell-based, human; conditions: U251N23, GA 25 μM
Method: (§3) Gap junctional communication (GJC) was assayed by transfer of the fluorescent Lucifer yellow (LY) after single-cell micro-injection, as described previously (Huang et al., Cancer Res. 58:5089-5096 (1998)). Cells were observed under a fluorescence-inverted microscope after micro-injection at the given time points, and the number of neighboring cells labeled with fluorescent dye was recorded.
(§4) It was next determined whether cx43-mediated apoptosis was related to gap junctional communication (GJC). […] Since Lucifer yellow dye transfer may not accurately reflect the ability of intracellular substances to pass through gap junctions, apoptosis was examined in response to VP16 in the presence of α-Glycyrrhetinic acid (GA), which inhibits GJC (Davidson et al., Biochem. Biophys. Res. Commun. 134:29-36 (1986); Davidson and Baumgarten, J. Pharmacol. Exp. Ther. 266:1104-1107 (1988)). […] Consistent with previous studies, both cx43- and control-transfected cells poorly communicated each other as examined by Lucifer yellow dye transfer experiment. The effect of GA was not obvious due to poor GJC in untreated U251 cells. […] Thus, the difference in apoptosis is probably due to the presence of cx43 itself rather than GJC. Furthermore, cx43-transfected cells expressed only non-phosphorylated cx43 in both mock- and VP 16-treated cells. In contrast, when the same experimental procedure was used to detect cx43 in primary astrocytes and T51B cells, several phosphorylated isoforms were clearly observed (Huang et al., Cancer Res. 58:5089-5096 (1998)). It is generally believed that phosphorylated forms of cx43 are involved in GJC (Hossain et al., J. Cell Physiol. 174:66-77 (1998)). Therefore it is likely that cx43-mediated apoptosis in response to VP16 is not related to its gap junctional communication effect.

U251cx43-216 cells [6] = assay: as above; type: cell-based, human; conditions: U251cx43-216, GA 25 μM
Method: as §3, §4

[7] = tested on: T51B rat liver epithelial cells; assay: as above; type: cell-based
Method: as §3
as §4, with “In contrast, when the same experimental procedure was used to detect cx43 in primary astrocytes and T51B cells, several phosphorylated isoforms were clearly observed (Huang et al., Cancer Res. 58:5089-5096 (1998)). It is generally believed that phosphorylated forms of cx43 are involved in GJC (Hossain et al., J. Cell Physiol. 174:66-77 (1998)). Therefore it is likely that cx43-mediated apoptosis in response to VP16 is not related to its gap junctional communication effect.” left out

[8] = tested on: cx43- or control-transfected cells; assay: Apoptosis in response to VP16 in the presence of GA; type: cell-based, human; conditions: cx43- and control-transfected cells
Excerpt: as §4, with “Therefore it is likely that cx43-mediated apoptosis in response to VP16 is not related to its gap junctional communication effect.” left out

[9] = tested on: control-transfected cells (U251N2 and U251N23); assay: Apoptosis by Hoechst dye staining after Tax; type: cell-based, human; conditions: 4×10^−9 M, four days after treatment
Method: (§5) The assay was performed as we previously described (Huang et al., Cell Death Differ. 5:96-106 (1998)). Briefly, cells were fixed in Carnoy's solution (methanol:glacial […]; 3:1) and stained with 5 μg/ml of bisbenzimide trihydrochloride (Hoechst 33258) for 20 min. The morphology of nuclei was then observed with a Zeiss (Thornwood, N.Y.) photomicroscope II. At least 500 nuclei in each cell line were counted. Experiments were repeated four times.
(§6) Cx43-transfected cells (U251cx43-216 and U251cx43-217) and control-transfected cells (U251N2 and U251N23) were treated with different concentrations of Tax (0, 10^−9, and 4×10^−9). Four days after treatment, cells were analyzed for apoptosis by Hoechst dye staining.

[10] = tested on: Cx43-transfected cells (U251cx43-216 and U251cx43-217); assay: Apoptosis by Hoechst dye staining after Tax; type: cell-based, human
Method: as §5, §6

cx43-transfected cells = assay: Cell proliferation in presence of cytokine or conditioned medium; type: cell-based, human
Method: The experiment was performed as described in Huang et al., (Cancer Res. 55:5054-5062 (1995); and Oncogene 10:467-475 (1995)). Briefly, cells were seeded in 96-well plates. 24 hr later, cells were incubated in the presence of cytokine or conditioned medium for 48 hours. 0.5 μCi of ^3H-thymidine was added to each well and incubation was continuous for 24 hr. The incorporated ^3H-thymidine was then determined by a scintillation counter.
The down-regulation of MCP-1 in cx43-transfected cells raised the question of whether reversion of the transformed phenotype in cx43-transfected cell was mediated by the reduction of MCP-1 expression. To test this possibility, anti-MCP-1 neutralization antibody was added into the tissue culture medium to block the MCP-1 activity and to examine the cell proliferation by CyQUANT cell proliferation assay.

U251cx43-217 cells = assay: Soft agar colony formation assay; type: cell-based, human
Method: (§7) Soft agar assay were performed as described previously (Huang, et al., Cancer Res. 58:5089-5096 (1998); Huang, et al., Mol. Carcinog. 30:209-217 (2001); Huang, et al., Carcinogenesis 20:485-492 (1999)). Briefly, cx43-transfected cells and control-transfected cells were assayed by seeding 1,000 cells in 0.26% agar medium into 6 well plates previously lined with 0.65% agar medium. The plates (in duplicate and repeated twice) were cultured for 3-4 weeks in the presence of different treatments and then stained with p-iodotetrazolium violet for overnight before photography and counting. Colony size equal to or greater than 15,625 μm^2 was scored as positive.
(§8) To examine the effect of down-regulation of MCP-1 on the transformed growth, cx43-transfected and control-transfected clones were assayed for their anchorage-independent growth in soft agar in the presence of MCP-1.

U251cx43-216 cells [11] = assay: Soft agar colony formation assay; type: cell-based, human
Method: as §7, §8

[12] = tested on: Cx43-transfected clones and control-transfected clones; assay: Apoptosis in the presence of MCP-1 or anti-MCP-1 antibody; type: cell-based, human; conditions: normal culture conditions, low serum conditions or in response to chemotherapeutic drugs
Method: Cx43-transfected clones and control-transfected clones were assayed for apoptosis in the presence of MCP-1 or anti-MCP-1 antibody. […] Therefore, enhanced apoptosis under low serum conditions and decreased cell growth in cx43-transfected cells involves at least two separate pathways.

[13] = U251cx43-216, 1 × 10^−9, 3 weeks
[14] = U251cx43-216, 4 × 10^−9, 3 weeks
[15] = U251cx43-216, 4 × 10^−10, 3 weeks

IC50 (U251cx43-216 cells [3]): 0.82 nM
IC50 (U251N23 cells [4]): 1.77 nM
Compound: COc1cccc2c1C(=O)c1c(O)c3c(c(O)c1C2=O)C[C@@](O)(C(=O)CO)C[C@@H]3O[C@H]1C[C@H](N)[C@H](O)[C@H](C)O1 [DOX, Doxorubicin]
Colony formation (colonies counted) (U251N23 cells [1]; U251N23, 1 × 10^−9, 3 weeks): 15 +/− 5
Colony formation (colonies counted) (U251N23 cells [1]; U251N23, 4 × 10^−9, 3 weeks): 6 +/− 0
Colony formation (colonies counted) (U251N23 cells [1]; U251N23, 4 × 10^−10, 3 weeks): 147 +/− 14
Colony formation (colonies counted) (U251cx43-216 cells [2]; [13]): 6 +/− 1
Colony formation (colonies counted) (U251cx43-216 cells [2]; [14]): 2 +/− 3
Colony formation (colonies counted) (U251cx43-216 cells [2]; [15]): 70 +/− 6

Compound: CC1(C)[C@@H](O)CC[C@]2(C)[C@H]3C(=O)C=C4[C@@H]5C[C@@](C)(C(=O)O)CC[C@]5(C)CC[C@@]4(C)[C@]3(C)CC[C@@H]12 [GA, α-Glycyrrhetinic acid]
No. of Fluorescent Neighboring cells after GA treatment (U251N23 cells [5]; 5 min): 0.7 +/− 1.1
No. of Fluorescent Neighboring cells after GA treatment (U251N23 cells [5]; 24 h): 2.2 +/− 3.7
No. of Fluorescent Neighboring cells after GA treatment (U251N23 cells [5]; 48 h): 0.9 +/− 1.9
No. of Fluorescent Neighboring cells after GA treatment (U251N23 cells [5]; 72 h): 2.4 +/− 4.1
No. of Fluorescent Neighboring cells after GA treatment (U251cx43-216 cells [6]; 5 min): 0.6 +/− 1.3
No. of Fluorescent Neighboring cells after GA treatment (U251cx43-216 cells [6]; 24 h): 0 +/− 0
No. of Fluorescent Neighboring cells after GA treatment (U251cx43-216 cells [6]; 48 h): 0.6 +/− 1.1
No. of Fluorescent Neighboring cells after GA treatment (U251cx43-216 cells [6]; 72 h): 0.1 +/− 0.3
effect on GJC ([7]; T51B cells): completely blocked GJC
No. of Fluorescent Neighboring cells after GA treatment ([7]; T51B, GA 25 μM, 5 min): 0 +/− 0
alteration of apoptosis in response to VP16 in the presence of α-Glycyrrhetinic acid [8]: No significant alteration of apoptosis

IC50 (U251cx43-216 cells [3]): 0.71 nM
IC50 (U251N23 cells [4]): 1.5 nM
Compound: CC(=O)O[C@H]1C(=O)[C@@]2(C)[C@H]([C@H](OC(=O)c3ccccc3)[C@]3(O)C[C@H](OC(=O)[C@H](O)[C@@H](NC(=O)c4ccccc4)c4ccccc4)C(C)=C1C3(C)C)[C@]1(OC(C)=O)CO[C@@H]1C[C@@H]2O [Tax, Paclitaxel]
Colony formation (colonies counted) (U251N23 cells [1]; U251N23, 1 × 10^−9, 3 weeks): 37 +/− 6
Colony formation (colonies counted) (U251N23 cells [1]; U251N23, 4 × 10^−9, 3 weeks): 16 +/− 2
Colony formation (colonies counted) (U251N23 cells [1]; U251N23, 4 × 10^−10, 3 weeks): 108 +/− 9
Colony formation (colonies counted) (U251cx43-216 cells [2]; [13]): 9 +/− 5
Colony formation (colonies counted) (U251cx43-216 cells [2]; [14]): 4 +/− 3
Colony formation (colonies counted) (U251cx43-216 cells [2]; [15]): 54 +/− 5
apoptotic cells [9]: about 17%
increase in apoptosis, cx43-expressing vs control-transfected cells ([10]; Tax treatment, four days): 3- to 4 fold
cells displaying typical features of apoptosis ([10]; cx43-transfected cells, 4×10^−9 M, four days after treatment): about 65%

Compound: MCP-1: Monocyte chemotactic protein-1 (MCP-1) is a member of the CC chemokine family
effect on cell proliferation rate (cx43-transfected cells): specifically stimulated
Colony formation in soft agar (U251cx43-217 cells; U251cx43-217, MCP-1 0.1 ng/ml): 18.0 ± 2.83
Colony formation in soft agar (U251cx43-217 cells; U251cx43-217, MCP-1 1 ng/ml): 24.5 ± 2.12
Colony formation in soft agar (U251cx43-217 cells; U251cx43-217, MCP-1 10 ng/ml): 22.5 ± 3.53
Colony formation in soft agar (U251cx43-217 cells; U251cx43-217, MCP-1 100 ng/ml): 20.5 ± 2.12
Colony formation in soft agar (U251cx43-216 cells [11]; U251cx43-216, MCP-1 0.1 ng/ml): 18.0 ± 2.83
Colony formation in soft agar (U251cx43-216 cells [11]; U251cx43-216, MCP-1 1 ng/ml): 37.5 ± 3.53
Colony formation in soft agar (U251cx43-216 cells [11]; U251cx43-216, MCP-1 10 ng/ml): 28.5 ± 4.95
Colony formation in soft agar (U251cx43-216 cells [11]; U251cx43-216, MCP-1 100 ng/ml): 36.0 ± 5.65
effect on apoptosis [12]: did not have any effect
